Experimental data taken from ChEMBL document CHEMBL3217606, “New positive allosteric modulators of the metabotropic glutamate receptor 2 (mGluR2). Identification and synthesis of N-propyl-5-substituted isoquinolones” (Medchemcomm, 2011).

Key:
[1] = biological target: T1, Metabotropic glutamate receptor 2 (Homo sapiens, UniProt Q14416); test: Positive allosteric modulation of human mGluR2 expressed in CHO cells assessed as incorporation of [35S]GTPgammaS at 0.3 nM to 50 uM after 30 mins by scintillation counting analysis relative to control; type: functional, cell-based
Target sequence in this assay (Q14416 19-872 limits assumed): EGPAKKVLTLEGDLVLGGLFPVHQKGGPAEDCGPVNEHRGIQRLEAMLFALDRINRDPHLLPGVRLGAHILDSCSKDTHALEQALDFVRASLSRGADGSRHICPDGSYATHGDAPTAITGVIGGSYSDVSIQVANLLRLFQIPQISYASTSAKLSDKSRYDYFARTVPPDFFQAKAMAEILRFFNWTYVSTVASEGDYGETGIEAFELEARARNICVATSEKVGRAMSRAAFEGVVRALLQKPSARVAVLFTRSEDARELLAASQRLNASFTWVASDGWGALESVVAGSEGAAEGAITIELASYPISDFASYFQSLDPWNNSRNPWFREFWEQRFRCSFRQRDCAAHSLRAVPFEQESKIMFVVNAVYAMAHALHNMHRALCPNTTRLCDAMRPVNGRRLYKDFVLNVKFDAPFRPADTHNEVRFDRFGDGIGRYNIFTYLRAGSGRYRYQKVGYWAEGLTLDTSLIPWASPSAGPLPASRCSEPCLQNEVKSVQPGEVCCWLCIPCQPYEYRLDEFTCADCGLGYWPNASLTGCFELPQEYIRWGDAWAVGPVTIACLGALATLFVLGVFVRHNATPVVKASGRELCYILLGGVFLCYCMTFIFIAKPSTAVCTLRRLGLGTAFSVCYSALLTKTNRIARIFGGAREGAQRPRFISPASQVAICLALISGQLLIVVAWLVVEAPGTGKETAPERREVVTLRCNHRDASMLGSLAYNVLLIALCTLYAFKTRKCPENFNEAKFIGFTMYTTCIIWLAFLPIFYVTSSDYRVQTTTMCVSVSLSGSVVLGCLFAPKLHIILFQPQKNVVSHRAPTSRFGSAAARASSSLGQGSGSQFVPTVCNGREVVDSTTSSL

[2] = biological target: T1, Metabotropic glutamate receptor 2; test: Positive allosteric modulation of human mGluR2 expressed in CHO cells assessed as incorporation of [35S]GTPgammaS after 30 mins by scintillation counting analysis; type: functional, cell-based
Target sequence in this assay (Q14416 whole entry): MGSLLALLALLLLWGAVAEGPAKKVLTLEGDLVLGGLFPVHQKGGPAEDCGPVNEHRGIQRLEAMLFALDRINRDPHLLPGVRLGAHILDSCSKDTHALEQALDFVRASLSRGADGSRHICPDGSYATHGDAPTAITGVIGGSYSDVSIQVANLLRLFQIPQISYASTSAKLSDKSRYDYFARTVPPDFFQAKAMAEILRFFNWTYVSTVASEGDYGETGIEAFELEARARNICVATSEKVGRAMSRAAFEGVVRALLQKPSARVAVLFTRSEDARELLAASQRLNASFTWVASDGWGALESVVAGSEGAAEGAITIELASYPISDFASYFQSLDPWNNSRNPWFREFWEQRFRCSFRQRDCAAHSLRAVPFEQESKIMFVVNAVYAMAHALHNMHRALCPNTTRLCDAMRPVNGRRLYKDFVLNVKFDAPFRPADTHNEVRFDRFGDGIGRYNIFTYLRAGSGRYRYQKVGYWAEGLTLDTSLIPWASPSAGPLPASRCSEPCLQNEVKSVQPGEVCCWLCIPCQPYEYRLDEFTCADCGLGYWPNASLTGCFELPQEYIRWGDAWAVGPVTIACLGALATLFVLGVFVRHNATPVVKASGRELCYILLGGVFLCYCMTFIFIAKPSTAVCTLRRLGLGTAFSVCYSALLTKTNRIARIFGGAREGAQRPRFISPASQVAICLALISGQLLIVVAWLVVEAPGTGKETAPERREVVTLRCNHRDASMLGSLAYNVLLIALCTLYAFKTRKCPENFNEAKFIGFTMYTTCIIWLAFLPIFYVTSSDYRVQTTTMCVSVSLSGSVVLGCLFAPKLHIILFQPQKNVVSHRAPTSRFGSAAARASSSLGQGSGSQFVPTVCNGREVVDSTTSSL

[3] = Drug metabolism in human liver microsomes at 5 uM after 15 mins; type: ADME; conditions: read-out: Drug metabolism
[4] = biological target: T1, Metabotropic glutamate receptor 2; test: Potentiation of human mGluR2 expressed in CHO cells assessed as fold shift in glutamate concentration response curve at 3 uM relative to control; type: cell-based
Target sequence in this assay (Q14416 19-872 limits assumed): as the sequence (Q14416 19-872 limits assumed) above

[5] = biological target: T1, Metabotropic glutamate receptor 2; test: Positive allosteric modulation of mGluR2 (unknown origin) by FLIPR assay
Target sequence in this assay (Q14416 whole entry): as the sequence (Q14416 whole entry) above

Compound	Emax [1] [%]	EC50 [2] [nM]	metabolised at 0.25 h, 5 µM [3] [%]	fold change (FC) [4]	EC50 [5] [nM]
CCCn1ccc2c(NCc3cccc(Oc4ccccc4)c3)cccc2c1=O	65	1260			
CCCn1ccc2c(NCCc3ccccc3OC)cccc2c1=O	137	126	91		
CCCn1ccc2c(NCCc3cccc(OC)c3)cccc2c1=O	110	251			
CCCn1ccc2c(NCCc3ccc(C)cc3)cccc2c1=O	134	200			
CCCn1ccc2c(N(C)CCc3ccc(OC)cc3)cccc2c1=O	93	398			
CCCn1ccc2c(NCc3cccc(OC(F)(F)F)c3)cccc2c1=O	162	200	34		
CCCn1ccc2c(NCc3ccc(OC)cc3)cccc2c1=O	81	501			
CCCn1ccc2c(NCc3ccccc3)cccc2c1=O	80	2000	38		
CCCn1ccc2c(OCCc3ccc(OC)cc3)cccc2c1=O	123	251			
CCCn1ccc2c(NCc3ccccc3Cl)cccc2c1=O	163	200	26	6.6	
CCCn1ccc2c(NCCc3ccc(OC)cc3)cccc2c1=O	92	251	97		
CCCn1ccc2c(NCc3cccc(OC)c3)cccc2c1=O	129	316			
CCCn1ccc2c(NCCc3ccccc3)ccc(Cl)c2c1=O	68	251			
CCCn1ccc2c(NCCc3ccccc3)cccc2c1=O	123	501	52		158
CCCn1ccc2c(NCCCc3ccccc3)cccc2c1=O	112	158	57		
